According to paper PMC7979765, “trans-Translation inhibitors bind to a novel site on the ribosome and clear Neisseria gonorrhoeae in vivo” (Nature Communications, 2021):
Converted amounts (≈) assume the structure as drawn. “And” between values parts separate entries of the source, which are not always exact repeats. Identical values can stand only once.

Legend:
[1] = Aqueous solubility (nephelometric); type: physicochemical
[2] = Liver microsome stability, murine; type: in vitro ADME, mouse; conditions: murine liver microsomes
Experimental: To examine potential for first-pass metabolism of analogs in the liver, the stability of analogs in the presence of liver microsome preparations (Eurofins Discovery for human, dog and rat; Xenotech for mouse) was measured using the method of Kuhnz, et al.[50]. for murine studies and Oback for the dog, human and rat studies. The amount of parent compound remaining after incubation with microsomes in the presence of NADPH over a 30 min time range was measured using a reverse-phase liquid chromatography/mass spectroscopy method that was customized for each compound. Half-lives were calculated using linear regression analysis of several time points.

HeLa cells [3] = assay: Mammalian cell cytotoxicity (CC50); type: cell-based, human; conditions: HeLa, replicates
Experimental: The half maximal cytotoxic concentration (CC50) of each compound against HeLa cells (ATCC CCL-2) was measured as previously described. […] The mean values for each biological replicate were averaged, and the CC50 was determined using a 4-parameter nonlinear curve fitting algorithm (GraphPad Prism). The average of the CC50s from two biological replicates was calculated and reported.

HeLa cells [4] = assay: Mammalian cell cytotoxicity (CC50); type: cell-based, human; conditions: one value per replicate
[5] = test system: N. gonorrhoeae strain H041; assay: In vivo efficacy in the gonorrhea mouse model; conditions: for mouse cfu: individual mice, 2.00E+01 = no CFU/mL recovered, limit of detection

O=C(Nc1nnc(-c2ccc(F)cc2)o1)c1ccccc1 [MBX-C4227]
Average solubility [1]: 50 µM
Solubility ([1]; single replicates): 50 µM (≈ 14.2 µg/mL)
Average MLMS t½ ([2]; average of replicates): <5 min
MLMS t½ ([2]; individual replicates): <5 min

O=C(Nc1nnc(-c2ccc(F)cc2)o1)c1ccccc1 [MBXC-4227]
NORMALIZED DATA (Fraction DMSO Control) (HeLa cells [3]; [CMPD] 0.78125 µM): 0.9526 Fraction DMSO Control and 0.9482 Fraction DMSO Control and 0.9778 Fraction DMSO Control and 0.9357 Fraction DMSO Control and 0.9509 Fraction DMSO Control and 0.9608 Fraction DMSO Control
NORMALIZED DATA (Fraction DMSO Control) (HeLa cells [3]; [CMPD] 1.5625 µM): 0.9867 Fraction DMSO Control and 1.034 Fraction DMSO Control and 1.028 Fraction DMSO Control and 0.9667 Fraction DMSO Control and 0.9674 Fraction DMSO Control and 0.99 Fraction DMSO Control
NORMALIZED DATA (Fraction DMSO Control) (HeLa cells [3]; [CMPD] 3.125 µM): 1.005 Fraction DMSO Control and 1.004 Fraction DMSO Control and 0.9736 Fraction DMSO Control and 0.9997 Fraction DMSO Control and 1.016 Fraction DMSO Control and 1.006 Fraction DMSO Control
NORMALIZED DATA (Fraction DMSO Control) (HeLa cells [3]; [CMPD] 6.25 µM): 0.9644 Fraction DMSO Control and 0.9925 Fraction DMSO Control and 0.9938 Fraction DMSO Control and 0.9804 Fraction DMSO Control and 0.9921 Fraction DMSO Control and 0.9636 Fraction DMSO Control
NORMALIZED DATA (Fraction DMSO Control) (HeLa cells [3]; [CMPD] 12.5 µM): 0.8938 Fraction DMSO Control and 0.856 Fraction DMSO Control and 0.8425 Fraction DMSO Control and 0.8596 Fraction DMSO Control and 0.8611 Fraction DMSO Control and 0.8593 Fraction DMSO Control
NORMALIZED DATA (Fraction DMSO Control) (HeLa cells [3]; [CMPD] 25 µM): 0.9039 Fraction DMSO Control and 0.9304 Fraction DMSO Control and 0.9129 Fraction DMSO Control and 0.9236 Fraction DMSO Control and 0.9122 Fraction DMSO Control and 0.9801 Fraction DMSO Control
NORMALIZED DATA (Fraction DMSO Control) (HeLa cells [3]; [CMPD] 50 µM): 0.7944 Fraction DMSO Control and 0.8334 Fraction DMSO Control and 0.7734 Fraction DMSO Control and 0.7887 Fraction DMSO Control and 0.7582 Fraction DMSO Control and 0.8061 Fraction DMSO Control
NORMALIZED DATA (Fraction DMSO Control) (HeLa cells [3]; [CMPD] 100 µM): 0.6978 Fraction DMSO Control and 0.688 Fraction DMSO Control and 0.6756 Fraction DMSO Control and 0.7089 Fraction DMSO Control and 0.7199 Fraction DMSO Control and 0.7396 Fraction DMSO Control
CC50 (HeLa cells [4]): ≥ 100 µM

CNC(C)C1CCC(N)C(OC2C(N)CC(N)C(OC3OCC(C)(O)C(NC)C3O)C2O)O1 (stereo not drawn) [gentamicin, reference compound]
mouse cfu ([5]; Day 5, GEN, listed as GEN): 2.00E+01 CFU/mL (19×) and 3.11E+03 CFU/mL
mouse cfu ([5]; Day 6, GEN, listed as GEN): 2.00E+01 CFU/mL (19×) and 6.14E+04 CFU/mL
mouse cfu ([5]; Day 7, GEN, listed as GEN): 2.00E+01 CFU/mL (19×) and 3.22E+05 CFU/mL
mouse cfu ([5]; Day 8, GEN, listed as GEN): 2.00E+01 CFU/mL (19×) and 5.02E+06 CFU/mL
mouse cfu ([5]; Day -1, GEN, listed as GEN): 1.75E+06 CFU/mL and 2.50E+03 CFU/mL and 5.59E+05 CFU/mL and 1.30E+04 CFU/mL and 2.52E+05 CFU/mL and 1.60E+05 CFU/mL and 6.90E+06 CFU/mL and 1.04E+06 CFU/mL and 2.76E+04 CFU/mL and 2.76E+06 CFU/mL and 1.05E+03 CFU/mL and 2.80E+06 CFU/mL and 2.25E+06 CFU/mL and 3.27E+05 CFU/mL and 1.99E+05 CFU/mL and 1.82E+05 CFU/mL and 1.55E+06 CFU/mL and 1.50E+06 CFU/mL and 9.59E+05 CFU/mL and 4.61E+03 CFU/mL
mice cleared per day: cleared flag ([5]; GEN, individual mice 21-40, 1 = cleared on the day, 0 = not cleared, listed as GEN): 1 and 0
Day (mice cleared per day: day on which the mouse was cleared) ([5]; GEN, individual mice 21-40, Day 8 with flag 0 = not cleared, listed as GEN): 1 and 4 and 8 and 3 and 5 and 2
treated mice with infection cleared ([5]; daily intraperitoneal injection 48 mg/kg for 5 days, N. gonorrhoeae H041): 95%
